Series [1] concerns EAE induced by PLP 139-151 peptide in SJL/J mice. The experiment in a line: EAE induced by PLP 139-151/CFA in SJL/J mice, clinical score 0-5. To be noted: for mean clinical score on day 22: Example 5: 100 μl s.c. daily from day 11, PBS control 2.5±0.84. The format is in vivo.
In series [2] the test system is EAE induced with mouse spinal cord homogenate (MSCH). Put plainly: EAE induced by mouse spinal cord homogenate (MSCH)/CFA in SJL/J mice. It is filed as in vivo. The settings on record: for clinical severity: 100 μl s.c. daily from day 4, all control mice had died by day 15, FIG. 6.
For series [3] the following is noted: stated as known; cited from earlier work.
Setting [4] is: Example 2: 100 μl i.p. daily day 0-50, followed until day 70.

On to `CCCCCCCC/C=C\CCCCCCCC(=O)OCC` [EOA, ethyl oleate], for which the “mice that developed EAE (incidence)” value in series [1] (Example 1: EOA 100 μl s.c. daily day 0-11, then days 13, 15, 17, 20, 23, 26, untreated control 5 out of 5) was 2 out of the 5. In series [1] (Example 1: EOA 100 μl s.c. from day 0, control 1.67±0.29), the “mean maximal severity (clinical score 0-5)” value is given as 0.5±0.32. Besides, the “effect on clinical severity and incidence of EAE” value in series [1] (Example 1: s.c. from day 0, FIG. 1) was “significantly reduced clinical severity and incidence of EAE”. Moreover, in series [1] (setting [4]), the “mean maximal clinical score (0-5)” value was found to be 0.63±0.28 and the “mice that developed EAE (incidence)” value is 5 out of 8. In series [1] (Example 2: i.p. daily day 0-50, treatment stopped day 50), the “time mice remained stable after cessation of treatment” value worked out at 20 days. For the same compound, the “maximal mean score at which disease progression was arrested” value in series [1] (Example 4: 100 μl i.p. daily from day 12 (clinical onset) to day 35, control 3.5±0.69) is 0.83±0.53. In addition, the “mean maximal clinical score, partially recovered subgroups (EOA-P, IFA-P)” value in series [1] (Example 4: daily i.p. treatment reinstated from day 40 for 40 days, FIG. 4C, untreated control 3.1±0.7) is on record as 1.3±0.19. Further, in series [1] (Example 4: i.p. daily day 12-35, FIG. 4A), the “therapeutic effect on ongoing EAE” value was “immediately arrested the worsening of the clinical symptoms of EAE”. Besides, the “state on day 40 after withholding treatment” value in series [1] (Example 4: i.p. daily day 12-35, then no treatment) is “remained stable with no evidence of disease exacerbation or development of relapses”. In addition, the “time to complete reversal of clinical symptoms after treatment was initiated” value in series [1] (Example 4: i.p. daily from day 12) was 8 to 10 days. In addition, the “mean maximal clinical score on days 20-21” value in series [1] (Example 4: i.p. daily from day 12, control 3.5±0.69) came to 0.17±0.11. In addition, the “effect of second course of treatment on clinical signs” value in series [1] (Example 4: partially recovered subgroups, daily i.p. from day 40) is recorded as “no further ameliorating effect”. Moreover, the “mean clinical score on day 22” value in series [1] amounted to 0.83±0.40. Besides, the “clinical severity” value in series [2] is “markedly reduced clinical severity”. Also, the “toxicity when injected into humans” value in series [3] was “non-toxic when injected into humans”.

mannide mono-oleate [MMO]: the “effect on disease development” value in series [1] (Example 3: 100 μl i.p. daily from day 0, FIG. 3) is recorded as “completely abrogated disease development”. Besides, the “mean maximal clinical score on day 40” value in series [1] (Example 3: i.p. daily day 0-25, 15 days after injections stopped, control 2.6±0.99) turned out to be 0.17±0.11. The “mean maximal clinical score on day 73” value in series [1] (Example 3: i.p. daily day 0-25, 48 days after injections stopped, control 3.2±0.75) was 0.67±0.44. Further, the “mice in which very mild clinical signs appeared after treatment was discontinued” value in series [1] (Example 3: i.p. daily day 0-25, from day 25 on) was 3 out of the 6. The “clinical signs on day 20” value in series [1] (Example 3: i.p. daily from day 0, all 6 treated mice, control score 3.4±0.69) is “free of any clinical sign of EAE”. The “mean clinical score on day 22” value in series [1] is 0.08±0.08. In addition, the “disease development” value in series [2] (100 μl s.c. daily from day 4, FIG. 6) was “almost complete abrogation of disease development”. The “clinical severity” value in series [2] is given as “markedly reduced clinical severity”. The “toxicity when injected into humans” value in series [3] is “non-toxic when injected into humans”.

Values taken from US20040186072A1, “Use of esters of long-chain fatty acids for treatment of autoimmune diseases” (priority 2001, published 2004).
